Measured values: patent US6737383B1, “Herbicidal oxadiazolidines” (priority 1999, dated 2004)

Assays:
bedstraw = assay: Test B pre/postemergence bedstraw; format: in vivo, Galium aparine
Method in brief: (§1)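 Response is a visual 0-to-10 score relative to untreated plants, where 0 means no effect and 10 means complete control, taken twelve to sixteen days after application. Treatments went onto soil at planting and onto foliage of 1- to 4-leaf plants, using a surfactant-containing non-phytotoxic solvent.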

blackgrass = assay: Test B pre/postemergence blackgrass; format: in vivo, Alopecurus myosuroides
Method in brief: as §1

giant foxtail = assay: Test B pre/postemergence giant foxtail; format: in vivo, Setaria faberii
Method in brief: as §1

morningglory = assay: Test B pre/postemergence morningglory; format: in vivo, Ipomoea hederacea
Method in brief: as §1

pigweed = assay: Test B pre/postemergence pigweed; format: in vivo, Amaranthus retroflexus
Method in brief: as §1

rape = assay: Test B pre/postemergence rape; format: in vivo, Brassica napus
Method in brief: as §1

soybean = assay: Test B pre/postemergence soybean; format: in vivo, Glycine max
Method in brief: as §1

sugar beet = assay: Test B pre/postemergence sugar beet; format: in vivo, Beta vulgaris
Method in brief: as §1

velvetleaf = assay: Test B pre/postemergence velvetleaf; format: in vivo, Abutilon theophrasti
Method in brief: as §1

wheat = assay: Test B pre/postemergence wheat; format: in vivo, Triticum aestivum
Method in brief: as §1

wild oat = assay: Test B pre/postemergence wild oat; format: in vivo, Avena fatua
Method in brief: as §1

purple nutsedge = assay: Test B pre/postemergence purple nutsedge; format: in vivo, Cyperus rotundus
Method in brief: as §1

rice = assay: Test B flood test rice; format: in vivo, Oryza sativa
Method in brief: (§2)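 Each value is a visual injury score relative to controls, with 10 meaning complete control and 0 no effect. Evaluation took place twelve to sixteen days after the 2-leaf-stage plants were treated and kept in the greenhouse.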

smallflower flatsedge = assay: Test B flood test smallflower flatsedge; format: in vivo, Cyperus difformis
Method in brief: as §2

duck salad = assay: Test B flood test duck salad; format: in vivo, Heteranthera limosa
Method in brief: as §2

bamyardgrass = assay: Test B flood test barnyardgrass; format: in vivo, Echinochloa crus-galli
Method in brief: as §2

[1] = Postemergence, Rate 125 g/ha, scale of 0 to 10 where 0 is no effect and 10 is complete control
[2] = Preemergence, Rate 62 g/ha, scale 0 to 10 (0 no effect, 10 complete control)
[3] = Preemergence, Rate 125 g/ha, 0 is no effect, 10 is complete control
[4] = Preemergence, Rate 250 g/ha, scale 0 to 10, 0 is no effect, 10 is complete control
[5] = Preemergence, Rate 500 g/ha, scale 0 to 10 (0 no effect, 10 complete control)
[6] = Rate 62 g/ha, Postemergence, scale of 0 to 10 where 0 is no effect and 10 is complete control
[7] = Rate 250 g/ha, Postemergence, scale 0 to 10, 0 is no effect, 10 is complete control
[8] = Rate 500 g/ha, Postemergence, scale 0 to 10
[9] = Postemergence (flood test species), Rate 125 g/ha, scale of 0 to 10 where 0 is no effect and 10 is complete control
[10] = Rate 62 g/ha, Postemergence section, flood test species, scale of 0 to 10 where 0 is no effect and 10 is complete control
[11] = Rate 250 g/ha, Postemergence (flood test), scale 0 to 10, 0 is no effect, 10 is complete control
[12] = Rate 250 g/ha, Pre-emergence, flood-test species, scale 0 to 10, 0 is no effect, 10 is complete control
[13] = Rate 500 g/ha, headed Pre-emergence (flood test species), scale 0 to 10 (0 no effect, 10 complete control)
[14] = Rate 500 g/ha, listed under Postemergence (flood test species), scale 0 to 10
[15] = Rate 1000 g/ha, Pre-emergence (as headed), scale 0 to 10
[16] = Rate 2000 g/ha, Pre-emergence (as headed), scale 0 to 10

C=CCn1c(=O)on(C(=O)N(c2ccc(F)cc2)C2CC2)c1=O [Compound 154]
Bedstraw plant response rating (bedstraw; [1]): 0
Bedstraw plant response rating (bedstraw; [2]): 0
Bedstraw plant response rating (0 to 10 scale) (bedstraw; [3]): 0
Bedstraw plant response rating (bedstraw; [4]): 0
Bedstraw plant response rating (bedstraw; [5]): 0
Bedstraw plant response rating (bedstraw; [6]): 0
Plant response rating, Bedstraw (bedstraw; [7]): 0
Blackgrass plant response rating (blackgrass; [1]): 0
Blackgrass plant response rating (blackgrass; [2]): 0
Blackgrass plant response rating (0 to 10 scale) (blackgrass; [3]): 0
Blackgrass plant response rating (blackgrass; [4]): 3
Blackgrass plant response rating (blackgrass; [5]): 5
Blackgrass plant response rating (blackgrass; [6]): 0
Plant response rating, Blackgrass (blackgrass; [7]): 0
Blackgrass plant response rating (blackgrass; [8]): 0
Giant foxtail plant response rating (giant foxtail; [1]): 0
Giant foxtail plant response rating (giant foxtail; [2]): 0
Giant foxtail plant response rating (0 to 10 scale) (giant foxtail; [3]): 0
Giant foxtail plant response rating (giant foxtail; [5]): 8
Giant foxtail plant response rating (giant foxtail; [6]): 0
Plant response rating, Giant foxtail (giant foxtail; [7]): 1
Giant foxtail plant response rating (giant foxtail; [8]): 3
Morningglory plant response rating (morningglory; [1]): 0
Morningglory plant response rating (morningglory; [2]): 0
Morningglory plant response rating (0 to 10 scale) (morningglory; [3]): 0
Morningglory plant response rating (morningglory; [4]): 0
Morningglory plant response rating (morningglory; [5]): 0
Morningglory plant response rating (morningglory; [6]): 0
Plant response rating, Morningglory (morningglory; [7]): 1
Morningglory plant response rating (morningglory; [8]): 2
Redroot pigweed plant response rating (pigweed; [1]): 0
Redroot pigweed plant response rating (pigweed; [2]): 6
Redroot pigweed plant response rating (0 to 10 scale) (pigweed; [3]): 7
Redroot pigweed plant response rating (pigweed; [4]): 8
Redroot pigweed plant response rating (pigweed; [5]): 9
Redroot pigweed plant response rating (pigweed; [6]): 0
Plant response rating, Redroot pigweed (pigweed; [7]): 2
Redroot pigweed plant response rating (pigweed; [8]): 6
Rape plant response rating (rape; [1]): 0
Rape plant response rating (rape; [2]): 0
Rape plant response rating (0 to 10 scale) (rape; [3]): 0
Rape plant response rating (rape; [4]): 0
Rape plant response rating (rape; [5]): 0
Rape plant response rating (rape; [6]): 0
Plant response rating, Rape (rape; [7]): 0
Rape plant response rating (rape; [8]): 0
Soybean plant response rating (soybean; [1]): 2
Soybean plant response rating (soybean; [2]): 0
Soybean plant response rating (0 to 10 scale) (soybean; [3]): 0
Soybean plant response rating (soybean; [4]): 0
Soybean plant response rating (soybean; [5]): 0
Soybean plant response rating (soybean; [6]): 2
Plant response rating, Soybean (soybean; [7]): 2
Soybean plant response rating (soybean; [8]): 3
Sugarbeets plant response rating (sugar beet; [1]): 0
Sugarbeets plant response rating (sugar beet; [2]): 0
Sugarbeets plant response rating (0 to 10 scale) (sugar beet; [3]): 0
Sugarbeets plant response rating (sugar beet; [4]): 4
Sugarbeets plant response rating (sugar beet; [5]): 6
Sugarbeets plant response rating (sugar beet; [6]): 0
Plant response rating, Sugarbeets (sugar beet; [7]): 0
Sugarbeets plant response rating (sugar beet; [8]): 0
Velvetleaf plant response rating (velvetleaf; [2]): 0
Velvetleaf plant response rating (0 to 10 scale) (velvetleaf; [3]): 0
Velvetleaf plant response rating (velvetleaf; [4]): 0
Velvetleaf plant response rating (velvetleaf; [5]): 0
Velvetleaf plant response rating (velvetleaf; [6]): 0
Plant response rating, Velvetleaf (velvetleaf; [7]): 0
Velvetleaf plant response rating (velvetleaf; [8]): 0
Wheat plant response rating (wheat; [2]): 0
Wheat plant response rating (0 to 10 scale) (wheat; [3]): 0
Wheat plant response rating (wheat; [4]): 0
Wheat plant response rating (wheat; [5]): 0
Wheat plant response rating (wheat; [6]): 0
Plant response rating, Wheat (wheat; [7]): 0
Wheat plant response rating (wheat; [8]): 0
Wild oats plant response rating (wild oat; [2]): 0
Wild oats plant response rating (0 to 10 scale) (wild oat; [3]): 0
Wild oats plant response rating (wild oat; [4]): 4
Wild oats plant response rating (wild oat; [5]): 5
Wild oats plant response rating (wild oat; [6]): 0
Plant response rating, Wild oats (wild oat; [7]): 0
Wild oats plant response rating (wild oat; [8]): 1
Nutsedge plant response rating (purple nutsedge; [1]): 0
Nutsedge plant response rating (purple nutsedge; [2]): 0
Nutsedge plant response rating (0 to 10 scale) (purple nutsedge; [3]): 0
Nutsedge plant response rating (purple nutsedge; [4]): 0
Nutsedge plant response rating (purple nutsedge; [5]): 0
Nutsedge plant response rating (purple nutsedge; [6]): 0
Plant response rating, Nutsedge (purple nutsedge; [7]): 0
Nutsedge plant response rating (purple nutsedge; [8]): 0
Rice plant response rating (rice; [9]): 0
Rice plant response rating (rice; [10]): 0
Plant response rating, Rice (rice; [11]): 0
Rice plant response rating (rice; [12]): 0
Plant response rating, Rice (rice; [13]): 0
Rice plant response rating (rice; [14]): 0
Rice plant response rating (rice; [15]): 0
Rice plant response rating (rice; [16]): 0
S. Flatsedge plant response rating (smallflower flatsedge; [9]): 0
S. Flatsedge plant response rating (smallflower flatsedge; Pre-emergence, Rate 1000 g/ha, scale 0 to 10 (0 no effect, 10 complete control)): 0
S. Flatsedge plant response rating (smallflower flatsedge; [10]): 0
Plant response rating, S. Flatsedge (smallflower flatsedge; [11]): 0
S. Flatsedge plant response rating (smallflower flatsedge; [12]): 0
S. Flatsedge plant response rating (smallflower flatsedge; [14]): 0
S. Flatsedge plant response rating (smallflower flatsedge; Rate 500 g/ha, Pre-emergence, flood test species, scale 0 to 10 (0 no effect, 10 complete control)): 0
S. Flatsedge plant response rating (smallflower flatsedge; [16]): 0
Ducksalad plant response rating (duck salad; [9]): 0
Ducksalad plant response rating (duck salad; [10]): 0
Plant response rating, Ducksalad (duck salad; [11]): 0
Ducksalad plant response rating (duck salad; [12]): 0
Plant response rating, Ducksalad (duck salad; [13]): 0
Ducksalad plant response rating (duck salad; [14]): 0
Ducksalad plant response rating (duck salad; [15]): 0
Ducksalad plant response rating (duck salad; [16]): 0
Barnyardgrass plant response rating (bamyardgrass; [9]): 0
Barnyardgrass plant response rating (bamyardgrass; [10]): 0
Plant response rating, Barnyardgrass (bamyardgrass; [11]): 0
Barnyardgrass plant response rating (bamyardgrass; [12]): 0
Plant response rating, Barnyardgrass (bamyardgrass; [13]): 0
Barnyardgrass plant response rating (bamyardgrass; [14]): 0
Barnyardgrass plant response rating (bamyardgrass; [15]): 0
Barnyardgrass plant response rating (bamyardgrass; Rate 2000 g/ha, Pre-emergence (as headed), scale 0 to 10, 0 no effect, 10 complete control): 0
